Source: PubChem BioAssay AID1963978 (Molecular Pharmacology Branch, DTP, NCI, 2024)
pIC50: −log10 of the molar value.

Test system: 616215-338-R-J1-PDC spheroids with HUVEC/MSC, viability
Assay: Anticancer human tumor 616215-338-R-J1-PDC patient-derived colon adenocarcinoma cell line growth inhibition [PI3K]
Details: for pIC50: curve of first compound; for viability, T/C: stronger effect = lower value
How it was run: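 Viability of mixed-cell spheroids was determined after exposure to pairwise combinations, one partner being inavolisib, alpelisib, duvelisib or copanlisib. Highest tested concentration matched clinical Cmax where known and 10 microM where not, descending in half-log steps.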

[1] = second compound 0.0316 µM, first compound 0.0316 µM
[2] = second compound 0.0316 µM, first compound 0.1 µM
[3] = second compound 0.1 µM, first compound 0.0316 µM
[4] = second compound 0.1 µM, first compound 0.1 µM
[5] = second compound 0.316 µM, first compound 0.0316 µM
[6] = second compound 0.316 µM, first compound 0.1 µM
[7] = second compound 1 µM, first compound 0.0316 µM
[8] = second compound 1 µM, first compound 0.1 µM
[9] = second compound 3.16 µM, first compound 0.0316 µM
[10] = second compound 3.16 µM, first compound 0.1 µM
[11] = second compound 10 µM, first compound 0.0316 µM
[12] = second compound 10 µM, first compound 0.1 µM
[13] = second compound 0.0316 µM, first compound 0.316 µM
[14] = second compound 0.0316 µM, first compound 1 µM
[15] = second compound 0.0316 µM, first compound 3.16 µM
[16] = second compound 0.0316 µM, first compound 10 µM
[17] = second compound 0.1 µM, first compound 0.316 µM
[18] = second compound 0.1 µM, first compound 1 µM
[19] = second compound 0.1 µM, first compound 3.16 µM
[20] = second compound 0.1 µM, first compound 10 µM
[21] = second compound 0.316 µM, first compound 0.316 µM
[22] = second compound 0.316 µM, first compound 1 µM
[23] = second compound 0.316 µM, first compound 3.16 µM
[24] = second compound 0.316 µM, first compound 10 µM
[25] = second compound 1 µM, first compound 0.316 µM
[26] = second compound 1 µM, first compound 1 µM
[27] = second compound 1 µM, first compound 3.16 µM
[28] = second compound 1 µM, first compound 10 µM
[29] = second compound 3.16 µM, first compound 0.316 µM
[30] = second compound 3.16 µM, first compound 1 µM
[31] = second compound 3.16 µM, first compound 3.16 µM
[32] = second compound 3.16 µM, first compound 10 µM
[33] = second compound 10 µM, first compound 0.316 µM
[34] = second compound 10 µM, first compound 1 µM
[35] = second compound 10 µM, first compound 3.16 µM
[36] = second compound 10 µM, first compound 10 µM
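Note: spheroids exposed to agents for seven days before the viability read.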

Work on `CC(=O)c1c(C)c2cnc(Nc3ccc(N4CCNCC4)cn3)nc2n(C2CCCC2)c1=O` + Cc1nc(NC(=O)N2CCCC2C(N)=O)sc1-c1ccnc(C(C)(C)C(F)(F)F)c1 yielded a pIC50 (second compound 0.0316 µM) of under 7.00, a pIC50 (second compound 0.1 µM) of under 7.00 and a pIC50 (second compound 0.316 µM) of under 7.00. For the same molecule, the pIC50 (second compound 1 µM) was under 7.00, the pIC50 (second compound 3.16 µM) was under 7.00 and the pIC50 (second compound 10 µM) was under 7.00. The viability, T/C (second compound 0.0316 µM, first compound 0.000316 µM) was 97.4%, the viability, T/C (second compound 0.0316 µM, first compound 0.001 µM) was 96.8% and the viability, T/C (second compound 0.0316 µM, first compound 0.00316 µM) was 102%. It also gave a viability, T/C (second compound 0.0316 µM, first compound 0.01 µM) of 110%, a viability, T/C [1] of 98% and a viability, T/C [2] of 113%. For the same molecule, the viability, T/C (second compound 0.1 µM, first compound 0.000316 µM) was 102%, the viability, T/C (second compound 0.1 µM, first compound 0.001 µM) was 95.7% and the viability, T/C (second compound 0.1 µM, first compound 0.00316 µM) was 105%. It also gave a viability, T/C (second compound 0.1 µM, first compound 0.01 µM) of 87.9%, a viability, T/C [3] of 104% and a viability, T/C [4] of 111%. The viability, T/C (second compound 0.316 µM, first compound 0.000316 µM) was 109%, the viability, T/C (second compound 0.316 µM, first compound 0.001 µM) was 97.3% and the viability, T/C (second compound 0.316 µM, first compound 0.00316 µM) was 88.1%. The viability, T/C (second compound 0.316 µM, first compound 0.01 µM) was 99.9%, the viability, T/C [5] was 104% and the viability, T/C [6] was 108%. The viability, T/C (second compound 1 µM, first compound 0.000316 µM) was 111%, the viability, T/C (second compound 1 µM, first compound 0.001 µM) was 108% and the viability, T/C (second compound 1 µM, first compound 0.00316 µM) was 97.2%. The viability, T/C (second compound 1 µM, first compound 0.01 µM) was 100%, the viability, T/C [7] was 103% and the viability, T/C [8] was 91.7%. The viability, T/C (second compound 3.16 µM, first compound 0.000316 µM) was 91.8%, the viability, T/C (second compound 3.16 µM, first compound 0.001 µM) was 95.6% and the viability, T/C (second compound 3.16 µM, first compound 0.00316 µM) was 90.5%. For the same molecule, the viability, T/C (second compound 3.16 µM, first compound 0.01 µM) was 98.4%, the viability, T/C [9] was 105% and the viability, T/C [10] was 101%. It also gave a viability, T/C (second compound 10 µM, first compound 0.000316 µM) of 97.5%, a viability, T/C (second compound 10 µM, first compound 0.001 µM) of 93% and a viability, T/C (second compound 10 µM, first compound 0.00316 µM) of 90.5%. It also gave a viability, T/C (second compound 10 µM, first compound 0.01 µM) of 93%, a viability, T/C [11] of 91% and a viability, T/C [12] of 97%.

`CCCS(=O)(=O)Nc1ccc(F)c(C(=O)c2c[nH]c3ncc(-c4ccc(Cl)cc4)cc23)c1F` + Cc1nc(NC(=O)N2CCCC2C(N)=O)sc1-c1ccnc(C(C)(C)C(F)(F)F)c1 was tested, and the pIC50 (second compound 0.0316 µM) was 5.40, the pIC50 (second compound 0.1 µM) was 5.37 and the pIC50 (second compound 0.316 µM) was 5.37. For the same molecule, the pIC50 (second compound 1 µM) was 5.35, the pIC50 (second compound 3.16 µM) was 5.43 and the pIC50 (second compound 10 µM) was 5.52. The viability, T/C [1] was 108%, the viability, T/C [2] was 94% and the viability, T/C [13] was 94.7%. It also gave a viability, T/C [14] of 81.2%, a viability, T/C [15] of 66.6% and a viability, T/C [16] of 3.55%. It also gave a viability, T/C [3] of 90.6%, a viability, T/C [4] of 92.5% and a viability, T/C [17] of 84.8%. The viability, T/C [18] was 91.2%, the viability, T/C [19] was 66.2% and the viability, T/C [20] was 4.03%. It also gave a viability, T/C [5] of 95.3%, a viability, T/C [6] of 90.1% and a viability, T/C [21] of 90.3%. The viability, T/C [22] was 85%, the viability, T/C [23] was 65.5% and the viability, T/C [24] was 5.89%. It also gave a viability, T/C [7] of 95.9%, a viability, T/C [8] of 92.2% and a viability, T/C [25] of 93.5%. It also gave a viability, T/C [26] of 86.1%, a viability, T/C [27] of 69.9% and a viability, T/C [28] of 6.45%. It also gave a viability, T/C [9] of 96.8%, a viability, T/C [10] of 86.8% and a viability, T/C [29] of 91.9%. The viability, T/C [30] was 82.3%, the viability, T/C [31] was 57% and the viability, T/C [32] was 5.97%. For the same molecule, the viability, T/C [11] was 91.7%, the viability, T/C [12] was 86.4% and the viability, T/C [33] was 87.4%. It also gave a viability, T/C [34] of 87.8%, a viability, T/C [35] of 48% and a viability, T/C [36] of 4.82%.

Work on `CNC(=O)c1ccc(N2C(=S)N(c3ccc(C#N)c(C(F)(F)F)c3)C(=O)C2(C)C)cc1F` + Cc1nc(NC(=O)N2CCCC2C(N)=O)sc1-c1ccnc(C(C)(C)C(F)(F)F)c1 yielded a pIC50 (second compound 0.0316 µM) of under 5.00, a pIC50 (second compound 0.1 µM) of under 5.00 and a pIC50 (second compound 0.316 µM) of under 5.00. For the same molecule, the pIC50 (second compound 1 µM) was under 5.00, the pIC50 (second compound 3.16 µM) was under 5.00 and the pIC50 (second compound 10 µM) was under 5.00. It also gave a viability, T/C [1] of 97.6%, a viability, T/C [2] of 95.1% and a viability, T/C [13] of 102%. For the same molecule, the viability, T/C [14] was 96.5%, the viability, T/C [15] was 95.6% and the viability, T/C [16] was 93%. For the same molecule, the viability, T/C [3] was 116%, the viability, T/C [4] was 86% and the viability, T/C [17] was 94.7%. It also gave a viability, T/C [18] of 99%, a viability, T/C [19] of 91.9% and a viability, T/C [20] of 103%. The viability, T/C [5] was 94%, the viability, T/C [6] was 99.9% and the viability, T/C [21] was 109%. The viability, T/C [22] was 97.9%, the viability, T/C [23] was 94.4% and the viability, T/C [24] was 93.1%. For the same molecule, the viability, T/C [7] was 101%, the viability, T/C [8] was 96.4% and the viability, T/C [25] was 104%. The viability, T/C [26] was 97.4%, the viability, T/C [27] was 101% and the viability, T/C [28] was 104%. The viability, T/C [9] was 101%, the viability, T/C [10] was 93.8% and the viability, T/C [29] was 91.3%. For the same molecule, the viability, T/C [30] was 90%, the viability, T/C [31] was 93.5% and the viability, T/C [32] was 90.6%. For the same molecule, the viability, T/C [11] was 90.6%, the viability, T/C [12] was 93.3% and the viability, T/C [33] was 98.4%. It also gave a viability, T/C [34] of 98.9%, a viability, T/C [35] of 99.4% and a viability, T/C [36] of 54.6%.
